In patent publication US12594264B2, “Modulators of alpha-synuclein proteolysis and associated methods of use” (Arvinas Operations, Inc., priority 2018, dated 2026):

Legend:
[1] = target: T1, sarkosyl insoluble (SI) α-synuclein (human α-SYN A53T) (Homo sapiens, UniProt P37840, A53T); assay: MJFF-14-6-4-2 conformation specific ELISA of sarkosyl insoluble α-synuclein after compound treatment; assay type: cell-based; details: 1 μM compound; protein remaining relative to DMSO control; PFF induced A53T α-synuclein overexpressing HEK293 cells; read-out: Protein Degradation at 1 μM
T1 construct: expressed in transfected cells
Experimental: (§1) Targeted degradation of sarkosyl insoluble (SI) α-synuclein via exemplary bifunctional compounds was assessed by MJFF-14-6-4-2 conformation specific ELISA following treatment of PFF induced A53T α-synuclein overexpressing HEK293 cells with 1 μM exemplary compound compared to DMSO vehicle control. Degradation activity of the exemplary compounds of Table 2 is expressed as % DMSO control. […] However, the effect of bifunctional targeting degraders, shown in FIG. 5, required the intact E3 ligase binding domain.
(§2) Trex293 (doxycycline inducible) cells stably expressing human α-SYN A53T (monoclonal) were plated in poly-d-lysine coated T-75 tissue culture flasks (4.5×10e6 cells/flask) in DMEM with 10% tet-free FBS, 10 μg/ml blasticidin, and 400 μg/ml zeocin. After an overnight incubation, the cells were induced to express α-SYN by treatment with 1 μg/ml doxycycline (Dox) and exemplary bifunctional compound. After a 24 hour dox induction, the medium on the cells was changed to Opti-MEM followed by treatment with α-SYN pre-formed fibrils** (PFFs)(5 μg/flask) pre-complexed with Lipofectamine 2000 transfection reagent for 4 hours. After PFF treatment, the medium was changed back to DMEM with the supplements described above and exemplary bifunctional compound for 48 hours.
(§3) Cell pellets were harvested from each flask using 0.25% trypsin followed by spinning at 500×g for 5 minutes. Each pellet was resuspended in 1 ml cold buffer H [Buffer H-10 mM Tris, 1 mM EGTA, 0.8M NaCl, 10% sucrose, pH7.4 containing 1× protease and phosphatase inhibitors] containing protease and phosphatase inhibitors. The resuspended pellets were incubated on ice for 20 minutes followed by centrifugation at 27,200×g for 20 minutes at 4° C. The supernatants were adjusted to 1% sarkosyl (Sigma) and 1% 2-mercaptoethanol followed by incubation for 1 hour at 37° C. on an orbital shaker set to 400 rpm. The samples were then spun at 150,000×g for 35 minutes at room temperature. The supernatant was removed and saved as the soluble fraction and the insoluble pellet was resuspended in 25 μl tris-buffered saline (TBS). Protein concentrations were determined by NanoDrop, and normalized protein concentrations were analyzed by WES capillary electrophoresis as well as an α-SYN oligomer ELISA.
Recombinant human α-SYN was purchased from Proteos. 1 mg aliquots were supplied at 10 mg/ml in 10 mM Tris, 50 mM NaCl, pH7.6. The aliquot was thawed on ice followed by centrifugation at 4° C. for 10 minutes at 12,000×g to pellet any insoluble material. The supernatant was removed and quantitated on a NanoDrop (A280) using Beer's Law (ε=5960 M-1 cm-1). The concentration was adjusted to 5 mg/ml in PBS followed by vortexing for 3 seconds to mix contents. The mixture was incubated in an orbital shaker set to 37° C. at 1,000 rpm for 7 days followed by aliquoting into individual use vials. Prior to addition to cells, an aliquot was thawed at room temperature, then diluted to 1 mg/ml with phosphate-buffered saline (PBS) followed by sonication for 1 minute with a probe sonicator (output 1; 90% duty cycle) in a chem hood.
Coming Costar high bind black well plates were coated with MJFR 14-6-4-2 (Abcam) at 1 μg/ml for 1 hour at 37° C. followed by washing with 1×TBS+0.1% tween-20 (TBS-T) then blocking with 3% bovine serum albumin (BSA) in TBS. After re-washing, samples were added after dilution in diluent (1% BSA/TBS-T). Non-sonicated PFF was used to generate a standard curve. The plates were incubated with sample overnight at 4° C. with shaking. The following day alkaline phosphatase (AP) conjugated MJFR 14-6-4-2 was added to the plate without washing followed by incubation at room temperature for 1 hour with shaking or rocking. The plates were then re-washed and substrate (CDP star alkaline phosphatase detection reagent) was added followed by a 30 minute incubation at room temperature. The plate was read on a luminescence plate reader. The counts were log transformed and read off the standard curve. […]

[2] = test system: PFF induced HEK293 TREX α-syn A53T cells; assay: Cytotoxicity by visual inspection of treated cells; assay type: cell-based, human; details: 1 μM
Experimental: as §1, §2
To assess targeted degradation of sarkosyl insoluble α-synuclein, exemplary bifunctional compounds designed to bind to oligomeric α-synuclein were tested at 1 μM in PFF induced HEK293 TREX α-syn A53T cells.

[3] = target: T2, SI A53T α-synuclein protein oligomers (Homo sapiens, UniProt P37840, A53T); assay: E3 ligase ligand competition experiment (Oligomer ELISA); assay type: cell-based; details: for Degradation activity with co-incubated excess E3 ligase ligand: 1 uM compound plus 15-fold molar excess E3 ligase ligand (VHL Ligand with 7, Cereblon Ligand with 23), FIG. 6A bars 2 and 4; for Reduction of SI A53T α-synuclein oligomers (Oligomer ELISA), compound alone: 1 uM compound, no competitor, FIG. 6A bars 1 and 3
T2 construct: expressed in transfected cells
Experimental: FIGS. 6A and 6B. α-Synuclein bifunctional degradation compound activity requires the E3 ligase activity for effective degradation. Pre-formed alpha-synuclein fibrils (α-syn PFFs) were added to TREX tetracycline inducible HEK293 cells that overexpress A53T mutant α-syn to induce detergent-insoluble oligomers as measured by Oligomer ELISA. Doxycycline induced α-syn A53T cells were treated with PFFs to produce higher order oligomeric α-syn A53T in the sarkosyl insoluble fraction and SI α-syn oligomers were detected by ELISA, as described in below. Exemplary bifunctional degradation compounds 7 and 23 at 1 uM concentration, used to generate the data shown in bars 1 and 3, reduced sarkosyl insoluble α-syn.
as §2, §3
Coming Costar high bind black well plates were coated with MJFR 14-6-4-2 (Abcam) at 1 μg/ml for 1 hour at 37° C. followed by washing with 1×TBS+0.1% tween-20 (TBS-T) then blocking with 3% bovine serum albumin (BSA) in TBS. […] The plate was read on a luminescence plate reader. The counts were log transformed and read off the standard curve. […]

remaining activity at 1 µM [1] [%]	Degradation activity with co-incubated excess E3 ligase ligand [3]	Reduction of SI A53T α-synuclein oligomers (Oligomer ELISA), compound alone [3]	SMILES	Cytotoxicity at the concentration tested [2]
35 to 70	effectively competed	effectively reduced	Cc1ncsc1-c1ccc([C@H](C)NC(=O)[C@@H]2C[C@@H](O)CN2C(=O)[C@@H](NC(=O)COCCOCCOc2ccc(CN3C(=O)C(=CC=Cc4ccc([N+](=O)[O-])cc4)c4ccccc43)cc2)C(C)(C)C)cc1 (single isomer, unassigned) [Exemplary Compound 7]	without any visual impact to cell health
35 to 70	effectively competed	effectively reduced	O=C1CCC(N2C(=O)c3ccc(N4CCN(CCN5CCC(OC6CN(CCCN7c8ccccc8Sc8ccccc87)C6)CC5)CC4)cc3C2=O)C(=O)N1 (stereo not shown) [Exemplary Compound 23, 5-(4-(2-(4-((1-(3-(10H-phenothiazin-10-yl)propyl)azetidin-3-yl)oxy)piperidin-1-yl)ethyl)piperazin-1-yl)-2-(2,6-dioxopiperidin-3-yl)isoindoline-1,3-dione]	–
